# Calls of active or inactive are those of the source. The calls are words filed in the database; no cut-off is given here. Where a SMILES comes first, the peptide text is derived from it.
# How the values were obtained:
# [1] = molecular target: Frizzled-2 (Homo sapiens) (UniProt Q14332); assay: Antagonist activity at Wnt3a-stimulated frizzled-2 (unknown origin) expressed in human HEK293superTOP flash cells incubated for 24 hrs by luciferase reporter gene assay; type: functional, cell-based; details: HEK293
# [2] = molecular target: Frizzled-2 (Homo sapiens) (UniProt Q14332); assay: Agonist activity at frizzled-2 (unknown origin) expressed in human HEK293superTOP flash cells by luciferase reporter gene assay; type: functional, cell-based; details: HEK293
# [3] = molecular target: Frizzled-1 (Homo sapiens) (UniProt Q9UP38); assay: Agonist activity at frizzled-1 (unknown origin) expressed in human HEK293superTOP flash cells by luciferase reporter gene assay; type: functional, cell-based; details: HEK293
# [4] = molecular target: Frizzled-1 (Homo sapiens) (UniProt Q9UP38); assay: Antagonist activity at Wnt3a-stimulated frizzled-1 (unknown origin) expressed in human HEK293superTOP flash cells incubated for 24 hrs by luciferase reporter gene assay; type: functional, cell-based; details: HEK293
# [5] = molecular target: Frizzled-2 (Homo sapiens) (UniProt Q14332); assay: Antagonist activity at Wnt3a-stimulated frizzled-2 (unknown origin) expressed in human HEK293superTOP flash cells at 10 nM incubated for 24 hrs by luciferase reporter gene assay; type: functional, cell-based; details: HEK293
# [6] = molecular target: Frizzled-1 (Rattus norvegicus) (UniProt Q08463); assay: Antagonist activity at Wnt3a-stimulated rat frizzled-1 expressed in CHO cells up to 10 uM incubated for 24 hrs by luciferase reporter gene assay; type: cell-based; details: dose microM <=10, time 24.0 hrs
# [7] = molecular target: Frizzled-2 (Rattus norvegicus) (UniProt Q08464); assay: Antagonist activity at Wnt3a-stimulated rat frizzled-2 expressed in […] cells up to 10 uM incubated for 24 hrs by luciferase reporter gene assay; type: cell-based; details: dose microM <=10, time 24.0 hrs
# [8] = molecular target: Frizzled-2 (Homo sapiens) (UniProt Q14332); assay: Antagonist activity at Wnt3a-stimulaed frizzled-2 (unknown origin) expressed in human HEK293superTOP flash cells at 1 nM incubated for 24 hrs by luciferase reporter gene assay (reference value: 0%); type: functional, cell-based; details: HEK293, filed as antagonist
# [9] = molecular target: Frizzled-1 (Homo sapiens) (UniProt Q9UP38); assay: Antagonist activity at Wnt3a-stimulated frizzled-1 (unknown origin) expressed in human HEK293superTOP flash cells at 10 nM incubated for 24 hrs by luciferase reporter gene assay; type: functional, cell-based; details: HEK293
# [10] = molecular target: Frizzled-2 (Rattus norvegicus) (UniProt Q08464); assay: Antagonist activity at Wnt3a-stimulated rat frizzled-2 expressed in African green monkey COS7 cells up to 10 uM incubated for 24 hrs by luciferase reporter gene assay; type: cell-based; details: dose microM <=10, time 24.0 hrs
# [11] = molecular target: Frizzled-1 (Rattus norvegicus) (UniProt Q08463); assay: Antagonist activity at Wnt3a-stimulated rat frizzled-1 expressed in African green monkey COS7 cells up to 10 uM incubated for 24 hrs by luciferase reporter gene assay; type: cell-based; details: dose microM <=10, time 24.0 hrs
# [12] = molecular target: Frizzled-1 (Homo sapiens) (UniProt Q9UP38); assay: Antagonist activity at Wnt3a-stimulaed frizzled-1 (unknown origin) expressed in human HEK293superTOP flash cells at 1 nM incubated for 24 hrs by luciferase reporter gene assay (reference value: 0%); type: functional, cell-based
# Chain of Frizzled-2 (Rattus norvegicus) (Q08464 29-570 limits assumed): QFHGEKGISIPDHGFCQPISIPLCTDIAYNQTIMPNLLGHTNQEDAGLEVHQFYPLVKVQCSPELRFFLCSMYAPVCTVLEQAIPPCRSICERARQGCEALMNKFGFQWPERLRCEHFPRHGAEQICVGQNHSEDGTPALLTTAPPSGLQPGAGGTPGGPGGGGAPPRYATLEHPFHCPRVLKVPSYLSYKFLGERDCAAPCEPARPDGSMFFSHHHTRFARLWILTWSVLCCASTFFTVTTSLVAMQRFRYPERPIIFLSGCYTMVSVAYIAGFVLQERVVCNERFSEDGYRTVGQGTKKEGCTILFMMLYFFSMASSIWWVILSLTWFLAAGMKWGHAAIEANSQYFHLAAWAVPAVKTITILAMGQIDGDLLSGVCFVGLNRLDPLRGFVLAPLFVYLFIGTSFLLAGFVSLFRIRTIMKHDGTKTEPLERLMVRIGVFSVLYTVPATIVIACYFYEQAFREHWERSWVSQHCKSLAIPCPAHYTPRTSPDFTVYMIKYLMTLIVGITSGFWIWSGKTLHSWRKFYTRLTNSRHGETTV
# Chain of Frizzled-1 (Rattus norvegicus) (Q08463 whole entry): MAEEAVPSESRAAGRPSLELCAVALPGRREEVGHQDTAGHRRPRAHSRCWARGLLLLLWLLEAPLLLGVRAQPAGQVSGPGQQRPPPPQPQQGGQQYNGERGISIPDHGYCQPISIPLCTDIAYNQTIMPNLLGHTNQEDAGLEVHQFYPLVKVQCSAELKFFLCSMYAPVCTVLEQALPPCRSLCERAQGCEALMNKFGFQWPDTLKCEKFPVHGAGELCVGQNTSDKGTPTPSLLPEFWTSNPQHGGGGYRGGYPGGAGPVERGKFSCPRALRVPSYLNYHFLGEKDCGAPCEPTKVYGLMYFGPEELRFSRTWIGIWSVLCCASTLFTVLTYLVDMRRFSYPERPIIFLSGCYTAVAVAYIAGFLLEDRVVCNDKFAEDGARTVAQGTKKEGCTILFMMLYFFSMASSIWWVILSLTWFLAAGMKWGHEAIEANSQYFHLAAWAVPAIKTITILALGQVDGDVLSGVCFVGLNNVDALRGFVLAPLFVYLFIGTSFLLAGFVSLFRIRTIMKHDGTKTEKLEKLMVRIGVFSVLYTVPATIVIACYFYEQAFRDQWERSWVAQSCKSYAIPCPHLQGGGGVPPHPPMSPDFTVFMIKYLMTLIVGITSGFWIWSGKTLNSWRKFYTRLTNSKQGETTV
# Chain of Frizzled-1 (Homo sapiens) (Q9UP38 70-647 limits assumed): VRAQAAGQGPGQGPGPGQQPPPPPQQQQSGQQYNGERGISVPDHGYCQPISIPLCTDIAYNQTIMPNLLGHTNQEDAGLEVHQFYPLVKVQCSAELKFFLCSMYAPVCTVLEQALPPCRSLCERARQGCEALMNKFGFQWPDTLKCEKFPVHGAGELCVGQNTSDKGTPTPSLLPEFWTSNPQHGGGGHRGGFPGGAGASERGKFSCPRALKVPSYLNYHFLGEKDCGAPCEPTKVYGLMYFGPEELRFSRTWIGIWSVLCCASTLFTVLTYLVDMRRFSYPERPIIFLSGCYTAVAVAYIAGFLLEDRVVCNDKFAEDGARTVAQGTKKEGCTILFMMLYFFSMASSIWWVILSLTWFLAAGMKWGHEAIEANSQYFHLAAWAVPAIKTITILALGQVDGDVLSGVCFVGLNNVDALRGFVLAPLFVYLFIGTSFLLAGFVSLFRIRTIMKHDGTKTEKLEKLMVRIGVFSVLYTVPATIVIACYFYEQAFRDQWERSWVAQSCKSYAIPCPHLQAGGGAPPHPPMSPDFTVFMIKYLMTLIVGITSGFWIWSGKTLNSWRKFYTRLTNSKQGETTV
# Chain of Frizzled-2 (Homo sapiens) (Q14332 24-565 limits assumed): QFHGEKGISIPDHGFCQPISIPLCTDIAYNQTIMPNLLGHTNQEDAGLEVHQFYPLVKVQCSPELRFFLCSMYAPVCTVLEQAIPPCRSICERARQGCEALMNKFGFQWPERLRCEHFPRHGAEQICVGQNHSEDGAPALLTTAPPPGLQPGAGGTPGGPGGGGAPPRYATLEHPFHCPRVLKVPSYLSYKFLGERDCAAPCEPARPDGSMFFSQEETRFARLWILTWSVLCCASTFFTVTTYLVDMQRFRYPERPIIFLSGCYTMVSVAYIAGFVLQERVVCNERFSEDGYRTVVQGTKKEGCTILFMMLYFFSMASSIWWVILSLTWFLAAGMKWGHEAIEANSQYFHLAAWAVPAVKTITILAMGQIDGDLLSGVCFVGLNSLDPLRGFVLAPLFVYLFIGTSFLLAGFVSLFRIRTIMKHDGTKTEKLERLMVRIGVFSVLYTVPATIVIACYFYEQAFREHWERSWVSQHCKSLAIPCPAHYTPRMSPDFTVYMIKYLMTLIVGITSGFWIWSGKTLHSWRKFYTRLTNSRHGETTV
inhibition [1],Activity [2],Activity [3],inhibition [4],inhibition [5],inhibition [6],inhibition [7],inhibition [8],inhibition [9],inhibition [10],inhibition [11],"inhibition ([12]; HEK293, filed as antagonist)",inhibition ([12]; HEK293),Compound
inactive,inactive,inactive,inactive,,,,,,,,,,Ac-GSKGTQGRACN-NH2
inactive,inactive,inactive,inactive,,,,,,,,,,Ac-DLVYFELSPDFCA-NH2
,,,,inactive,inactive,inactive,85%,inactive,inactive,inactive,67.6%,,CC(=O)N[C@@H](CS)C(=O)N[C@@H](CC(N)=O)C(=O)N[C@@H](CCCCN)C(=O)N[C@H](C(=O)N[C@@H](CO)C(=O)N[C@@H](CCC(=O)O)C(=O)NCC(=O)N[C@@H](C)C(=O)N[C@@H](CC(=O)O)C(=O)NCC(=O)N[C@@H](CS)C(=O)N[C@@H](CCC(=O)O)C(=O)N[C@@H](CC(C)C)C(N)=O)[C@@H](C)O (Ac-CNKTSEGADGCEL-NH2)
inactive,inactive,inactive,inactive,,,,,,,,,,CC[C@H](C)[C@H](NC(C)=O)C(=O)N[C@@H](CCC(=O)O)C(=O)N[C@@H](CCC(=O)O)C(=O)N[C@@H](CS)C(=O)N[C@@H](CCC(N)=O)C(=O)N[C@@H](Cc1cnc[nH]1)C(=O)N[C@@H](CCC(N)=O)C(=O)N[C@@H](Cc1ccccc1)C(=O)N[C@@H](CCCNC(=N)N)C(=O)N[C@@H](CC(=O)O)C(=O)N[C@@H](CCCNC(=N)N)C(=O)N[C@@H](CCCNC(=N)N)C(=O)N[C@@H](Cc1c[nH]c2ccccc12)C(=O)N[C@@H](CC(N)=O)C(=O)N[C@@H](CS)C(N)=O (Ac-IEECQHQFRDRRWNC-NH2)
,,,,inactive,inactive,inactive,84.9%,inactive,inactive,inactive,67.2%,,Ac-CNKTSEGMDGAEL-NH2
,,,,inactive,inactive,inactive,85.5%,inactive,inactive,inactive,65.9%,,CSCC[C@H](NC(=O)CNC(=O)[C@H](CCC(=O)O)NC(=O)[C@H](CO)NC(=O)[C@@H](NC(=O)[C@H](CCCCN)NC(=O)[C@H](CC(N)=O)NC(=O)[C@H](CS)NC(C)=O)[C@@H](C)O)C(=O)N[C@@H](CC(=O)O)C(=O)NCC(=O)N[C@@H](CS)C(=O)N[C@@H](C)C(=O)N[C@@H](CC(C)C)C(N)=O (Ac-CNKTSEGMDGCAL-NH2)
inactive,inactive,inactive,inactive,,,,,,,,,,CC(=O)N[C@@H](CS)C(=O)N[C@@H](CCCCN)C(=O)N[C@@H](CS)C(=O)N[C@@H](Cc1cnc[nH]1)C(=O)NCC(=O)N[C@H](C(=O)N[C@@H](CO)C(=O)NCC(=O)N[C@@H](CO)C(=O)N[C@@H](CS)C(=O)N[C@H](C(=O)N[C@H](C(=O)N[C@@H](CCCCN)C(=O)N[C@H](C(=O)N[C@@H](CS)C(=O)N[C@@H](Cc1c[nH]c2ccccc12)C(N)=O)[C@@H](C)O)C(C)C)[C@@H](C)O)C(C)C (Ac-CKCHGVSGSCTVKTCW-NH2)
inactive,inactive,inactive,inactive,,,,,,,,,,Ac-MNRHNNEAGR-NH2
,,,,inactive,inactive,inactive,84.9%,inactive,inactive,inactive,70.8%,,CSCC[C@H](NC(=O)CNC(=O)[C@H](CCC(=O)O)NC(=O)[C@H](CO)NC(=O)[C@@H](NC(=O)[C@H](C)NC(=O)[C@H](CC(N)=O)NC(=O)[C@H](CS)NC(C)=O)[C@@H](C)O)C(=O)N[C@@H](CC(=O)O)C(=O)NCC(=O)N[C@@H](CS)C(=O)N[C@@H](CCC(=O)O)C(=O)N[C@@H](CC(C)C)C(N)=O (Ac-CNATSEGMDGCEL-NH2)
,,,,inactive,inactive,inactive,84.7%,inactive,inactive,inactive,70.8%,,CSCC[C@H](NC(=O)CNC(=O)[C@H](C)NC(=O)[C@H](CO)NC(=O)[C@@H](NC(=O)[C@H](CCCCN)NC(=O)[C@H](CC(N)=O)NC(=O)[C@H](CS)NC(C)=O)[C@@H](C)O)C(=O)N[C@@H](CC(=O)O)C(=O)NCC(=O)N[C@@H](CS)C(=O)N[C@@H](CCC(=O)O)C(=O)N[C@@H](CC(C)C)C(N)=O (Ac-CNKTSAGMDGCEL-NH2)
,,,,inactive,inactive,inactive,82.6%,inactive,inactive,inactive,70.8%,,Ac-ANKTSEGMDGCEL-NH2
,,,,inactive,inactive,inactive,63.1%,inactive,inactive,inactive,52.6%,,CSCC[C@H](NC(=O)[C@H](C)NC(=O)[C@H](CCC(=O)O)NC(=O)[C@H](CO)NC(=O)[C@@H](NC(=O)[C@H](CCCCN)NC(=O)[C@H](CC(N)=O)NC(=O)[C@H](CS)NC(C)=O)[C@@H](C)O)C(=O)N[C@@H](CC(=O)O)C(=O)NCC(=O)N[C@@H](CS)C(=O)N[C@@H](CCC(=O)O)C(=O)N[C@@H](CC(C)C)C(N)=O (Ac-CNKTSEAMDGCEL-NH2)
,,,,inactive,inactive,inactive,86.5%,inactive,inactive,inactive,65.9%,,CSCC[C@H](NC(=O)CNC(=O)[C@H](CCC(=O)O)NC(=O)[C@H](CO)NC(=O)[C@@H](NC(=O)[C@H](CCCCN)NC(=O)[C@H](CC(N)=O)NC(=O)[C@H](CS)NC(C)=O)[C@@H](C)O)C(=O)N[C@@H](CC(=O)O)C(=O)NCC(=O)N[C@@H](CS)C(=O)N[C@@H](CCC(=O)O)C(=O)N[C@@H](C)C(N)=O (Ac-CNKTSEGMDGCEA-NH2)
,,,,inactive,inactive,inactive,74.3%,inactive,inactive,inactive,66.8%,,CSCC[C@H](NC(=O)CNC(=O)[C@H](CCC(=O)O)NC(=O)[C@H](CO)NC(=O)[C@@H](NC(=O)[C@H](CCCCN)NC(=O)[C@H](CC(N)=O)NC(=O)[C@H](CS)NC(C)=O)[C@@H](C)O)C(=O)N[C@@H](CC(=O)O)C(=O)NCC(=O)N[C@@H](CS)C(=O)N[C@@H](C)C(=O)N[C@@H](C)C(N)=O (Ac-CNKTSEGMDGCAA-NH2)
,,,,inactive,inactive,inactive,59.4%,inactive,inactive,inactive,,28.1%,CSCC[C@H](NC(=O)CNC(=O)[C@H](CCC(=O)O)NC(=O)[C@H](CO)NC(=O)[C@H](C)NC(=O)[C@H](CCCCN)NC(=O)[C@H](CC(N)=O)NC(=O)[C@H](CS)NC(C)=O)C(=O)N[C@@H](CC(=O)O)C(=O)NCC(=O)N[C@@H](CS)C(=O)N[C@@H](CCC(=O)O)C(=O)N[C@@H](CC(C)C)C(N)=O (Ac-CNKASEGMDGCEL-NH2)

# Reference: ChEMBL document CHEMBL4806963, “Antagonistic peptides for frizzled-1 and frizzled-2” (2013)
